The values that follow come from patent US20230167068A1, “BENZOPYRAZOLE COMPOUND” (MEDSHINE DISCOVERY INC., priority 2019, published 2023).

The structures appear in SMILES notation.

The test system of experiment [1] is hMMP-1 promoter reporter gene in Hela cells (GR transcription repression). In words: hMMP1 transcription repression activity, luciferase reporter gene screening system (hMMP1 GR transcription repression test). In kind it is cell-based. The conditions noted are these: Homo sapiens; for Emax: HeLa, maximum effect value, positive control 1000 nM dexamethasone, read-out: TR (hMMP1 transcription inhibition activity) Effect; for IC50: absolute IC50, HeLa hMMP-1/luciferase cells, 10 nM PMA, 18 h, max concentration 1000 nM, read-out: TR (hMMP1 transcription inhibition activity) IC50. An excerpt:
Human MMP-1 promoter region (containing two AP-1 binding sites and two PEA3 sites, a total of 249bp, GenBank catalog #AF023338) was cloned into the upstream of luciferase reporter gene. The hMMP-1 promoter reporter gene was constructed and transfected into Hela cells so that luciferase production could be easily detected. A stable recombinant hMMP-⅟luciferase cell line was used for the development and validation of this experiment.
• [0377] 1) All the culture media were carefully aspirated, and the cell layer was rinsed gently with an appropriate amount of DPBS, and then aspirated. • [0378] 2) An appropriate amount of 0.05% Typsine EDTA was added and incubated in a CO2 incubator for 3-5 minutes to digest the cells. • [0379] 3) The cells were resuspended with an appropriate amount of cell culture medium. • [0380] 4) The required amount of cells were calculated. The cell concentration was 5x10^3 cells/well. • [0381] 5) The cell suspension was diluted with appropriate cell culture medium. • [0382] 6) The cell suspension was dispensed into a disposable sterile loading slot. • [0383] 7) Inoculated 30µL per well into a 384-well plate. • [0384] 8) The cell plate was placed in a 37° C. 5% CO2 incubator for 18-24 hours.
The final DMSO concentration was 0.1%. PMA needs to be protected from light during use.
hMMP1 GR transcription repression activity test • [0395] 1) Inoculated cells: Fresh cells were inoculated into 384 white experimental plates at 5x10^3 cells/30µL/well, and incubated in a 5% CO2 incubator at 37° C. for 24 hours. • [0396] 2) Compound preparation: The compound plate was prepared before the experiment, and the reference compound (dexamethasone) and the tested compound of 10x concentration were prepared. Finally, the experimental plate of 10× concentration compound was obtained. • [0397] 3) Added compound: 3.3 µL of 10x compound was transferred with Bravo and added to cell plate. Incubated for 18 hours in a 5% CO2 incubator at 37° C. • [0398] 4) 30 µL of Bright-Glo fluorescent detection reagent was transferred to the cell plate. • [0399] 5) Centrifugal incubation for 2 minutes. • [0400] 6) The fluorescence value was measured with the Envision plate reader.
Positive Control: 10 nM PMA + 1000 nM dexamethasone (0.1% DMSO)
Negative control: 10 nM PMA (0.1% DMSO)
(§1) Test compound: Maximum concentration of 1000 nM, 4-fold dilution, 10 wells in total, repeated.
(§2) Dexamethasone: Maximum concentration of 1000 nM, 4-fold dilution, 10 wells in total, repeated.
The graphing software GraphPad Prism5 was used to create the concentration curves of the test compounds and calculate the IC50 values.

For experiment [2], the system named is MMTV promoter luciferase reporter in HeLa cell line (GR transcription activation). In words: MMTV transcription activation activity, luciferase reporter gene screening system (MMTV_GR transcription activation experiment). It counts as cell-based. The conditions noted are these: Homo sapiens; for Emax: HeLa, maximum effect value, positive control 1000 nM dexamethasone, read-out: TA (MMTV transcription activation activity) Effect; for EC50: absolute EC50, HeLa MMTV-luciferase cells, 18 h, max concentration 1000 nM, read-out: TA (MMTV transcription activation activity) EC50.
Excerpt: The promoter of mouse mammary tumor virus (MMTV) contains specific binding sites for activating GRs (GREs). To determine the activity of the compounds, a reporter gene (luciferase) was inserted after the MMTV promoter, and this construct was expressed in a stable manner in the genome of the HeLa cell line. MMTV promoter was activated by the test compounds to induce the expression of luciferase, and its activity was detected by luminescence measurement.
• [0442] 1) All the culture media were carefully aspirated, the cell layer was rinsed gently with an appropriate amount of DPBS, and then aspirated. • [0443] 2) An appropriate amount of 0.05% Typsine EDTA was added and incubated in a CO2 incubator for 3-5 minutes to digest the cells. • [0444] 3) The cells were resuspended with an appropriate amount of cell culture medium. • [0445] 4) The amount of cells required was calculated, and the cell concentration was 4×10^3 cells/well. • [0446] 5) The cell suspension was diluted with appropriate cell culture medium. • [0447] 6) Cell suspension was dispensed into a disposable sterile loading slot. • [0448] 7) Inoculated 30 µL per well into a 384-well plate. • [0449] 8) The cell plate was placed in a 37° C. 5% CO2 incubator for 18-24 hours.
Compounds were diluted with DMSO to 1 mM, 0.25 mM, 0.0625 mM, 0.015625 mM, 0.0039 mM, 0.0009765 mM, 0.000244 mM, 0.000061 mM, 0.00001526 mM and 0.0000038125 mM, then diluted 25-fold with serum culture medium treated with activated carbon, and finally 4x concentration compound experimental plate was obtained, prepared before use.
The final DMSO experimental concentration was 0.1%.
MMTV_GR transcription activation activity experiment • [0458] 1) Inoculated cells: Fresh cells were inoculated into 384 white transparent bottom experimental plates at 4×10^3 cells/30 µL/well, and incubated at 37° C. 5% CO2 incubator for 24 hours. • [0459] 2) Compound preparation: The compound plate was prepared before the experiment, and the reference compound (dexamethasone) and the test compound of 4x concentration were prepared. Finally, the experimental plate of 4x concentration compound was obtained. • [0460] 3) Added compound: 10 µL of 4x compound was transferred with Bravo and added to cell plate. Incubated for 18 hours in a 37° C. 5% CO2 incubator. • [0461] 4) 30 µL of Bright-Glo fluorescent detection reagent was transferred to the cell plate. • [0462] 5) Centrifugal incubation for 2 minutes. • [0463] 6) The fluorescence value was measured with the Envision plate reader.
Positive control: 1000 nM dexamethasone (0.1% DMSO)
Negative control: 0.1% DMSO
as §1, §2
The graphing software GraphPad Prism5 was used to create the concentration curves of the tested compounds and calculate the IC50 values.
(Reporter assays use an easily measured gene product as a stand-in for the process of interest.)

Regarding `C[C@H](NC(=O)C(C)(F)F)[C@H](Oc1ccc2c(cnn2-c2ccc3c(c2)CCCO3)c1)c1cc(F)cc(F)c1` [WX002], in experiment [1], the Emax worked out at 100% and the IC50 – broadly, the concentration needed to halve the response being measured – was 0.318 nM. In addition, in experiment [2], the Emax is 76% and the concentration giving a half-maximal response (EC50) (commonly the concentration that produces a half-maximal response) is 2.07 nM.
For `C[C@H](NC(=O)C(C)(F)F)[C@H](Oc1ccc2c(cnn2-c2ccc3nccn3c2)c1)c1cc(F)cc(F)c1` [WX003], in experiment [1], the Emax worked out at 95.1% and the half-inhibitory concentration (IC50) amounted to 0.08 nM. In experiment [2], the Emax was 91.4% and the EC50 was determined as 0.229 nM.
Consider `CC(C)[C@H](NC(=O)C(C)(F)F)[C@H](Oc1ccc2c(cnn2-c2ccc3nccn3c2)c1)c1ccccc1` [WX004], for which, in experiment [1], the Emax was found to be 78.8% and the IC50 came out at 3.58 nM. In addition, in experiment [2], the Emax came to 63.7% and the concentration for a half-maximal effect (EC50) was found to be 5.86 nM.
For `CC(C)[C@H](NC(=O)C(C)(F)F)[C@H](Oc1ccc2c(cnn2-c2ccc3nncn3c2)c1)c1cc(F)cc(F)c1` [WX017], in experiment [1], the Emax worked out at 86% and the half-inhibitory concentration (IC50) was found to be 0.9 nM. Also, in experiment [2], the Emax turned out to be 81.3% and the 50% effective concentration (EC50) was found to be 2.56 nM.
The matching figures for `CC(C)[C@H](NC(=O)C(C)(F)F)[C@H](Oc1ccc2c(cnn2-c2ccc3nncn3c2)c1)c1ccccc1` [WX018]: 83.7%, 6.1 nM, 69.4% and 12.3 nM.
The matching figures for `C[C@H](NC(=O)C(C)(F)F)[C@H](Oc1ccc2c(cnn2-c2ccc3nncn3c2)c1)c1cc(F)cc(F)c1` [WX019]: 94.8%, 0.171 nM, 75.2% and 0.94 nM.
For the compound `C[C@H](NC(=O)C(C)(F)F)[C@H](Oc1ccc2c(cnn2-c2ccc3ncnn3c2)c1)c1cc(F)cc(F)c1` [WX034], in experiment [1], the Emax worked out at 97.1% and the IC50 stood at 3.22 nM. Further, in experiment [2], the Emax amounted to 89.2% and the concentration giving a half-maximal response (EC50) amounted to 3.2 nM.
Taken in the same sequence, the figures for `C[C@H](NC(=O)C(C)(F)F)[C@H](Oc1ccc2c(cnn2-c2ccc3nnnn3c2)c1)c1cc(F)cc(F)c1` [WX035] were 94.6%, 2.15 nM, 82.5% and 5.59 nM.
The matching figures for `C[C@H](NC(=O)C(C)(F)F)[C@H](Oc1ccc2c(cnn2-c2cnn(C)c2)c1)c1ccccc1` [WX043]: 93.3%, 1.21 nM, 72.8% and 5.03 nM.
Taken in the same sequence, the figures for `C[C@H](NC(=O)C(C)(F)F)[C@H](Oc1ccc2c(cnn2-c2cn(C)nn2)c1)c1cc(F)cc(F)c1` [WX051] were 95.4%, 3.45 nM, 70.8% and 4.93 nM.
